# Assay: Liquid dish neat product liquid-air partition coefficient
# Type: physicochemical
# Settings: not given
row,SMILES,Log of liquid dish neat product liquid-air partition coefficient (Comment Code K/L)
1,CCCCOC(=O)C(C)OC(=O)CCC (stereo not drawn) [Material 595],K (Log of liquid dish neat product liquid-air partition coefficient greater than or equal to −7)
2,CC1=CC2C(C(C)C)CCC(C)(O)C2CC1 (stereo not drawn) [Material 1046],K (Log of liquid dish neat product liquid-air partition coefficient greater than or equal to −7)
3,CC(=O)O[C@]1(C)CC[C@@]23C[C@@H]1C(C)(C)[C@@H]2CC[C@H]3C [Material 567],K (Log of liquid dish neat product liquid-air partition coefficient greater than or equal to −7)
4,CC1=CC(=O)CC(C)C12CCC(=C(C)C)C2 (stereo not drawn) [Material 610],K (Log of liquid dish neat product liquid-air partition coefficient greater than or equal to −7)
5,CC(=O)CCCC(C)CCCC(C)CCCC(C)C (stereo not drawn) [Material 782],K (Log of liquid dish neat product liquid-air partition coefficient greater than or equal to −7)
6,C=CC(=C)CCC=C(C)CCC=C(C)C [Material 628],K (Log of liquid dish neat product liquid-air partition coefficient greater than or equal to −7)
7,CC(=O)C1CC/C(C)=C\CC/C(C)=C\C/C=C/1C (stereo not drawn) [Material 1095],K (Log of liquid dish neat product liquid-air partition coefficient greater than or equal to −7)
8,CC(C)=CCCC(C)=C1CC=C(C)CC1 [Material 608],K (Log of liquid dish neat product liquid-air partition coefficient greater than or equal to −7)
9,CCCCCCCCCC(=O)O [Material 582],K (Log of liquid dish neat product liquid-air partition coefficient greater than or equal to −7)

# Same assay, conditions: class code letter within Comment Code
row,SMILES,Log of liquid dish neat product liquid-air partition coefficient (Comment Code K/L)
1,C=CC(C)(CCC=C(C)C)OC(=O)C(C)C (stereo not drawn) [Material 149],K (Log of liquid dish neat product liquid-air partition coefficient greater than or equal to −7)
2,COC1CCCCCCCCCCC1 [Material 9],K (Log of liquid dish neat product liquid-air partition coefficient greater than or equal to −7)
3,CCCCCCCCCCCC(=O)OCCC(C)C [Material 238],K (Log of liquid dish neat product liquid-air partition coefficient greater than or equal to −7)
4,CCCCCCCCCCCC(OC)OC [Material 421],K (Log of liquid dish neat product liquid-air partition coefficient greater than or equal to −7)
5,CC1CCCCCCCCCCCCC(=O)C1 (stereo not drawn) [Material 79],K (Log of liquid dish neat product liquid-air partition coefficient greater than or equal to −7)

# Same assay, conditions: code letters K, L
row,SMILES,Comment Code: Log of liquid dish neat product liquid-air partition coefficient
1,C/C=C(\C)C(=O)OCC/C=C\CC [Material 536],K (Log of liquid dish neat product liquid-air partition coefficient greater than or equal to −7)
2,CC(=O)O[C@]1(C)CC[C@@]23C[C@@H]1C(C)(C)[C@@H]2CC[C@H]3C [Material 567],K (Log of liquid dish neat product liquid-air partition coefficient greater than or equal to −7)
3,CC1=C(C/C=C(\C)C=O)C(C)(C)CCC1 [Material 602],K (Log of liquid dish neat product liquid-air partition coefficient greater than or equal to −7)
4,CC(C)=CCC/C(C)=C/COC=O [Material 306],K (Log of liquid dish neat product liquid-air partition coefficient greater than or equal to −7)
5,CCC(=O)OC(C)c1ccccc1 (stereo not drawn) [Material 96],K (Log of liquid dish neat product liquid-air partition coefficient greater than or equal to −7)
6,CC(C)(C)c1ccc(CC=O)cc1 [Material 994],K (Log of liquid dish neat product liquid-air partition coefficient greater than or equal to −7)
7,O=COCCc1ccccc1 [Material 956],K (Log of liquid dish neat product liquid-air partition coefficient greater than or equal to −7)
